Values quoted from earlier work as cited in EP0409903B1, “PROCESS FOR PREPARING POLYUNSATURATED FATTY ACIDS” (STAROIL LIMITED, priority 1988, dated 1989).

Conditions: ingestion of DHA in ester form and/or as the free acid; Hiroi at al., 1978

Compound: CC/C=C\C/C=C\C/C=C\C/C=C\C/C=C\C/C=C\CCC(=O)O [DHA, docosahexaenoic acid]
- DHA and EPA levels in plasmatic phospholipids: significantly increases
